According to patent EP0173664A2, “Biologically active benzimidazole compounds and process for their preparation” (priority 1984, dated 1986):

Test system: isolated rabbit gastric glands
Experiment: Inhibiting effect in vitro on acid secretion in isolated rabbit gastric glands (14C-aminopyrine accumulation, histamine-stimulated)
Format: cell-based
Conditions: Oryctolagus cuniculus, 1 h; negative logarithm of concentration (in M) giving 50% inhibition of aminopyrine accumulation; glands incubated 60 min with 5x10^-5M histamine; read-out: Biological effect in glands pIC50 (converted)
Description: Isolated rabbit gastric glands were prepared as described by Berglindh et al., Acta physiol. scand. 1976. 96. 150-159. This method involves vascular perfusion of the rabbit stomach via the gastric arteries, scraping and scissor mincing of the separated gastric mucosa and collagenase (0.1%, Type I, Sigma Chemicals, St. Louis, MO. USA) digestion at 37°C for 60-90 min. The glands are then harvested and filtered through nylon cloth to remove coarse fragments. The glands are thereafter incubated at 37°C in a medium containing NaCl 132.4 mM, KC1 5.4 mM, […], NaH2P04 1.0 mM, MgS04 1.2 mM, CaCl2 1.0 mM, glucose 10 mM, and 1 mg/ml rabbit albumine, pH 7.4.
The acid secretion in the isolated gland preparation was recorded by measuring the uptake of ^14C-labelled aminopyrine into the glands as described by Berglindh et al., Acta physiol. scand. 1976. 97. 401-414. Accumulation of aminopyrine in the glands indicates gastric acid secretion within the glands. The standard medium contained 10^-6M ^14C-aminopyrine (Amersham, Great Britain). After the incubation period, the glands were centrifuged, the supernatant was removed and the glands dried, weighed and dissolved in Soluene -350 (Packard, IU. USA). Samples of the supernatant and glands were separately counted in a scintillation counter. The accumulation of ^14 C-labelled aminopyrine in the glands was calculated as detailed by Berglindh et al., Acta physiol. scand. 1976. 97. 403.
Glands were incubated for 60 min. in the presence of 5x10^-5M histamine and the test compound to be studied. The free base of the test compound was dissolved in methanol. The final concentration of methanol was 1% in the incubation medium, having no influence on the aminopyrine accumulation ratio. For each test compound a complete dose-response curve was generated by testing doses in duplicate in the concentration range 10^-7M to 10-^4M.

Row | IC50 | Structure (SMILES)
1 | 0.794 µM | COc1ccc2[nH]c([S+]([O-])Cc3cc(Oc4ccc(C)cc4)ccn3)nc2c1 (centres unmarked) [Example 3, 5-methoxy-2-[[[4-(4-methylphenoxy)--2-pyridinyl]methyl]sulfinyl]-1H-benzimidazole]
2 | 0.316 µM | CCc1cnc(C[S+]([O-])c2nc3cc(OC)ccc3[nH]2)cc1Oc1ccccc1 (centres unmarked) [Example 6]
3 | 2.51 µM | COc1ccc2[nH]c([S+]([O-])Cc3cc(-c4ccccc4)ccn3)nc2c1 (centres unmarked) [Example 8]
4 | 1.26 µM | COc1ccc2[nH]c([S+]([O-])Cc3cc(Oc4ccccc4)ccn3)nc2c1 (centres unmarked) [Example 10]

The remaining lines, values behind:

Row | Structure (SMILES) | IC50
5 | CCc1cnc(C[S+]([O-])c2nc3cc(C)c(C)cc3[nH]2)cc1Oc1ccccc1 (centres unmarked) [Example 1, 5,6-dimethyl-2-[[(4-phenoxy-5--ethyl-2-pyridinyl)methyl]sulfinyl]-1H-benzimidazole] | 1 µM
6 | Cc1cc2nc([S+]([O-])Cc3cc(Oc4ccccc4)ccn3)[nH]c2cc1C (centres unmarked) [Example 12] | 0.316 µM
7 | COc1ccc2[nH]c([S+]([O-])Cc3nccc(Oc4ccc(C)cc4)c3C)nc2c1 (centres unmarked) [Example 16] | 0.631 µM
8 | COc1ccc2[nH]c([S+]([O-])Cc3cc(Oc4ccc(C)cc4)c(C)cn3)nc2c1 (centres unmarked) [Example 18] | 0.631 µM
9 | COc1ccc2[nH]c([S+]([O-])Cc3cc(OCc4ccccc4)c(C)cn3)nc2c1 (centres unmarked) [Example 22] | 0.0794 µM
10 | Cc1cc2nc([S+]([O-])Cc3cc(-c4ccccc4)ccn3)[nH]c2cc1C (centres unmarked) [Example 24] | 7.94 µM
11 | CCc1cnc(C[S+]([O-])c2nc3cc(OC)ccc3[nH]2)cc1OCc1ccccc1 (centres unmarked) [Example 26] | 0.794 µM
